This is an account of results in patent publication US11376328B2, “Pharmaceutical composition” (Astellas Pharma Inc., priority 2017, dated 2022).

≈ marks a conversion by molar mass, not a printed value.

This data set can be described thus: Solubility in water of the drug substance. In kind it is physicochemical. The conditions noted are these: drug substance as used. From the text:
The drug solubility in water of a drug may be determined, for example, in accordance with the method described in the General Notices of The Japanese Pharmacopoeia, Seventeenth Edition.

For the compound `Cc1cccc(C)c1N(CC(=O)Nc1ccc(-c2ncon2)cc1)C(=O)C1CCS(=O)(=O)CC1` [amenamevir], the concentration in solution (water, 20 °C, thermodynamic from solid) (solubility at 30 min) came to 5 µg/mL (≈ 10.4 µM). `C=CC[C@@H]1/C=C(\C)C[C@H](C)C[C@H](OC)[C@H]2O[C@@](O)(C(=O)C(=O)N3CCCC[C@H]3C(=O)O[C@H](/C(C)=C/[C@@H]3CC[C@@H](O)[C@H](OC)C3)[C@H](C)[C@@H](O)CC1=O)[C@H](C)C[C@@H]2OC` [tacrolimus] returned a Solubility in water of 4 µg/mL (≈ 4.97 µM).
